Where two headings read alike, the source gives them in different places.
Legend:
[1] = system: IRF pathway, THP1-Dual™ cells; test: STING reporter assay in THP1-Dual cells, IRF pathway (Lucia luciferase, QUANTI-Luc); assay type: cell-based, human; conditions: THP1-Dual cells, 10% human plasma, 20 hours, Lucia luciferase, 100% activation = 100 μM cGAMP, read-out: IRF (EC50 μM)
Method in brief: (§1)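 THP-1-derived dual-reporter cells treated with serially diluted compounds (final top concentration 100 μM) for 20 h at 37° C. NF-κB read as SEAP via QUANTI-Blue at OD620; IRF read as Lucia luminescence via QUANTI-Luc after 5 min. 100% activation set by 100 μM cGAMP, baseline by DMSO.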

[2] = system: NF-κB pathway, THP1-Dual™ cells; test: STING reporter assay in THP1-Dual cells, NF-κB pathway (SEAP, QUANTI-Blue); assay type: cell-based, human; conditions: THP1-Dual cells, 10% human plasma, 20 hours, SEAP, 100% activation = 100 μM cGAMP, read-out: NFkB (EC50 μM)
Method in brief: as §1

Row | EC50 [1] | EC50 [2] | EC50 ([1]; Homo sapiens, THP1-Dual, 20 h) | EC50 ([2]; Homo sapiens, THP1-Dual, 20 h) | Structure (SMILES)
1 |  |  | 2.3 µM | 2.3 µM | N#CC1CC(OC(=O)c2cc(Cl)cc3cc(CNC(=O)c4cnn5cccnc45)oc23)C1 (stereo not drawn) [EXAMPLE 241, 3-Cyanocyclobutyl 5-chloro-2-((pyrazolo[1,5-a]pyrimidine-3-carboxamido)methyl)benzofuran-7-carboxylate]
2 |  |  | 2.6 µM | 2.6 µM | COC(=O)c1cc(C)cc2c(Cl)c(CNC(=O)c3cnn4cc(C)cnc34)oc12 [EXAMPLE 119, Methyl 3-chloro-5-methyl-2-((6-methylpyrazolo[1,5-a]pyrimidine-3-carboxamido)methyl)benzofuran-7-carboxylate]
3 |  |  | 16 µM | 22 µM | COC(=O)c1cc(Br)cc2cc(CN3CCc4ccncc4C3=O)oc12 [Example 81, Methyl 5-bromo-2-((1-oxo-3,4-dihydro-2,7-naphthyridin-2(1H)-yl)methyl)benzofuran-7-carboxylate]
4 |  |  | 0.5 µM | 0.65 µM | O=C(OCC(F)(F)F)c1cc(F)cc2cc(CNC(=O)c3cnn4cccnc34)oc12 [EXAMPLE 231, 2,2,2-Trifluoroethyl 5-fluoro-2-((pyrazolo[1,5-a]pyrimidine-3-carboxamido)methyl)benzofuran-7-carboxylate]
5 | 37 µM | 56 µM |  |  | CC(OC(=O)c1ccc(F)c2cc(CNC(=O)c3cnn4cccnc34)oc12)C(F)(F)F (single isomer, unassigned) [EXAMPLE 310, 1,1,1-Trifluoropropan-2-yl 4-fluoro-2-((pyrazolo[1,5-a]pyrimidine-3-carboxamido)methyl)benzofuran-7-carboxylate]
6 |  |  | 12 µM | 17 µM | O=C(NCc1cc2cccc(C(=O)OCC(F)(F)F)c2o1)c1cnccn1 [EXAMPLE 216, 2,2,2-Trifluoroethyl 2-((pyrazine-2-carboxamido)methyl)benzofuran-7-carboxylate]
7 |  |  | 1.1 µM | 1.6 µM | COC(=O)c1ccc(C)c2cc(CNC(=O)c3cnn4cccnc34)oc12 [EXAMPLE 31, Methyl 4-methyl-2-((pyrazolo[1,5-a]pyrimidine-3-carboxamido)methyl)benzofuran-7-carboxylate]
8 |  |  | 3.5 µM | 3.5 µM | CC(CC(F)(F)F)OC(=O)c1cc(Cl)cc2cc(CNC(=O)c3cnn4cccnc34)oc12 (single isomer, unassigned) [EXAMPLE 335, 4,4,4-Trifluorobutan-2-yl 5-chloro-2-((pyrazolo[1,5-a]pyrimidine-3-carboxamido)methyl)benzofuran-7-carboxylate]
9 |  |  | 7.7 µM | 10 µM | Cc1ccn2ncc(C(=O)NCc3cc4cccc(C(=O)OCC(F)(F)F)c4o3)c2n1 [EXAMPLE 219, 2,2,2-Trifluoroethyl 2-((5-methylpyrazolo[1,5-a]pyrimidine-3-carboxamido)methyl)benzofuran-7-carboxylate]
10 |  |  | 1.3 µM | 1.3 µM | CC(NC(=O)c1cnn2cccnc12)c1cc2cc(F)cc(C(=O)OC3CC(F)(F)C3)c2o1 (stereo not drawn) [EXAMPLE 306, 3,3-Difluorocyclobutyl 5-fluoro-2-(1-(pyrazolo[1,5-a]pyrimidine-3-carboxamido)ethyl)benzofuran-7-carboxylate]
11 |  |  | 2.1 µM | 3.2 µM | COC(=O)c1cc(F)cc2cc(CNC(=O)c3cnn4ccc(OC)nc34)oc12 [EXAMPLE 40, Methyl 5-fluoro-2-((5-methoxypyrazolo[1,5-a]pyrimidine-3-carboxamido)methyl)benzofuran-7-carboxylate]
12 |  |  | 3 µM | 3.1 µM | COC(=O)c1cc(Cl)cc2cc(CNC(=O)c3cncn(C)c3=O)oc12 [Example 65, Methyl 5-chloro-2-((1-methyl-6-oxo-1,6-dihydropyrimidine-5-carboxamido)methyl)benzofuran-7-carboxylate]
13 |  |  | 30 µM | 27 µM | COC(=O)Cc1cc(Br)cc2cc(CNC(=O)c3cnn4cccnc34)oc12 [Example 84, Methyl 2-(5-bromo-2-((pyrazolo[1,5-a]pyrimidine-3-carboxamido)methyl)benzofuran-7-yl)acetate]
14 |  |  | 0.73 µM | 0.76 µM | COC(OC(=O)c1cc(C)cc2cc(CNC(=O)c3cnn4cccnc34)oc12)C(F)(F)F (single isomer, unassigned) [EXAMPLE 343, 2,2,2-Trifluoro-1-methoxyethyl 5-methyl-2-((pyrazolo[1,5-a]pyrimidine-3-carboxamido)methyl)benzofuran-7-carboxylate]
15 | 25 µM | 30 µM |  |  | CC(OC(=O)c1cccc2cc(CN3CCc4ccncc4C3=O)oc12)C(F)(F)F (single isomer, unassigned) [EXAMPLE 308, 1,1,1-Trifluoropropan-2-yl 2-((1-oxo-3,4-dihydro-2,7-naphthyridin-2(1H)-yl)methyl)benzo-furan-7-carboxylate]
16 |  |  | 3.7 µM | 6 µM | COC(=O)c1cc(C)cc2cc(CNC(=O)c3c(N)nn4cccnc34)oc12 [Example 93, Methyl 2-((2-aminopyrazolo[1,5-a]pyrimidine-3-carboxamido)methyl)-5-methylbenzofuran-7-carboxylate]
17 |  |  | 11 µM | 12 µM | O=C(OC1CC(c2ccc(F)cc2)C1)c1cc(Cl)cc2cc(CNC(=O)c3cnn4cccnc34)oc12 (single isomer, unassigned) [EXAMPLE 333, 3-(4-Fluorophenyl)cyclobutyl 5-chloro-2-((pyrazolo[1,5-a]pyrimidine-3-carboxamido)methyl)benzofuran-7-carboxylate]
18 |  |  | 0.75 µM | 0.61 µM | CSC(=O)c1cc(C)cc2cc(CNC(=O)c3cnn4cccnc34)oc12 [EXAMPLE 391, S-Methyl 5-methyl-2-((pyrazolo[1,5-a]pyrimidine-3-carboxamido)methyl)benzofuran-7-carbothioate]
19 |  |  | 0.34 µM | 0.31 µM | O=C(OC1CC(F)(F)C1)c1cc(F)cc2c(Cl)c(CNC(=O)c3cnn4cccnc34)oc12 [EXAMPLE 291, 3,3-Difluorocyclobutyl 3-chloro-5-fluoro-2-((pyrazolo[1,5-a]pyrimidine-3-carboxamido)methyl)benzofuran-7-carboxylate]
20 | 3.8 µM | 3.5 µM |  |  | CC(OC(=O)c1cc(C(F)(F)F)cc2cc(CNC(=O)c3cnn4cccnc34)oc12)C(F)(F)F (single isomer, unassigned) [EXAMPLE 349, 1,1,1-Trifluoropropan-2-yl 2-((pyrazolo[1,5-a]pyrimidine-3-carboxamido)methyl)-5-(trifluoromethyl)benzofuran-7-carboxylate]
21 |  |  | 13 µM | 19 µM | O=C(OCCN1CCOCC1)c1cc(Cl)cc2cc(CNC(=O)c3cnn4cccnc34)oc12 [EXAMPLE 255, 2-Morpholinoethyl 5-chloro-2-((pyrazolo[1,5-a]pyrimidine-3-carboxamido)methyl)benzofuran-7-carboxylate]
22 |  |  | 1.1 µM | 1.1 µM | O=C(OC1CCC1)c1cc(F)cc2cc(CNC(=O)c3cnn4cccnc34)oc12 [EXAMPLE 234, Cyclobutyl 5-fluoro-2-((pyrazolo[1,5-a]pyrimidine-3-carboxamido)methyl)benzofuran-7-carboxylate]
23 |  |  | 44 µM | 65 µM | CCOC(=O)c1cccc2cc(CN3Cc4ccncc4C3=O)oc12 [EXAMPLE 203, Ethyl 2-((3-oxo-1,3-dihydro-2H-pyrrolo[3,4-c]pyridin-2-yl)methyl)benzofuran-7-carboxylate]
24 | 73 µM | 79 µM |  |  | CC(NC(=O)c1cnn2cccnc12)c1cc2cc(F)cc(C(=O)OCC(F)(F)F)c2o1 (single isomer, unassigned) [EXAMPLE 327, 2,2,2-Trifluoroethyl 5-fluoro-2-(1-(pyrazolo[1,5-a]pyrimidine-3-carboxamido)ethyl)benzofuran-7-carboxylate]
25 |  |  | 18 µM | 19 µM | O=C(OC(C(F)(F)F)C(F)(F)F)c1cccc2cc(CN3CCc4ccncc4C3=O)oc12 [EXAMPLE 209]
26 |  |  | 0.6 µM | 0.82 µM | COC(=O)c1cc(Cl)cc2c(C)c(CNC(=O)c3cnn4cccnc34)oc12 [EXAMPLE 115, Methyl 5-chloro-3-methyl-2-((pyrazolo[1,5-a]pyrimidine-3-carboxamido)methyl)benzofuran-7-carboxylate]
27 |  |  | 0.39 µM | 0.3 µM | CSC(=O)c1cc(F)cc2c(Cl)c(CNC(=O)c3cnn4cccnc34)oc12 [EXAMPLE 393, S-Methyl 3-chloro-5-fluoro-2-((pyrazolo[1,5-a]pyrimidine-3-carboxamido)methyl)benzofuran-7-carbothioate]
28 |  |  | 1.9 µM | 2.4 µM | COC(OC(=O)c1cc(C(F)(F)F)cc2cc(CNC(=O)c3cnn4cccnc34)oc12)C(F)(F)F (single isomer, unassigned) [EXAMPLE 351, 2,2,2-Trifluoro-1-methoxyethyl 2-((pyrazolo[1,5-a]pyrimidine-3-carboxamido)methyl)-5-(trifluoromethyl)benzofuran-7-carboxylate]
29 |  |  | 0.69 µM | 0.68 µM | O=C(OCC(F)F)c1cc(F)cc2cc(CNC(=O)c3cnn4cccnc34)oc12 [EXAMPLE 235, 2,2-Difluoroethyl 5-fluoro-2-((pyrazolo[1,5-a]pyrimidine-3-carboxamido)methyl)benzofuran-7-carboxylate]

Row | Structure (SMILES) | EC50 [1] | EC50 [2] | EC50 ([1]; Homo sapiens, THP1-Dual, 20 h) | EC50 ([2]; Homo sapiens, THP1-Dual, 20 h)
30 | COC(=O)c1cccc2cc(CNC(=O)c3cnn4ccc(C)nc34)oc12 [EXAMPLE 10, Methyl 2-((5-methylpyrazolo[1,5-a]pyrimidine-3-carboxamido)methyl) benzofuran-7-carboxylate] | 7.5 µM | 7.6 µM |  | 

From patent publication US12673954B2 (BRISTOL-MYERS SQUIBB COMPANY, priority 2021, dated 2026)
